# In paper PMC8619046, “ABCB1 and ABCG2 Control Brain Accumulation and Intestinal Disposition of the Novel ROS1/TRK/ALK Inhibitor Repotrectinib, While OATP1A/1B, ABCG2, and CYP3A Limit Its Oral Availability” (Pharmaceutics, 2021):
# Values joined by “and” are separate entries in the source; they are usually repeats but may differ in a detail not shown here. Identical values can stand only once. Like-named read-outs stand apart in the source and are kept apart here.
# Assays:
# [1] = Toxicity signs observed in mice after oral repotrectinib; assay type: in vivo; settings: 10 mg/kg oral
# Description: (§1) Mice with similar average ages (and body weights) were randomly allocated in experimental groups as far as possible. Mice were maintained in a temperature-controlled and specific pathogen-free environment with a 12-h light and 12-h dark cycle and they received a standard diet (Transbreed, SDS Diets, Technilab-BMI, Someren, The Netherlands) and acidified water ad libitum. […] Given the objective main readout (repotrectinib plasma and tissue concentrations as measured by LC-MS/MS), no blinding method was applied.
# (§2) To minimize variation in absorption upon oral administration, mice were fasted for 2–3 h before repotrectinib (10 mg/kg body weight) was administered by gavage into the stomach at 10 µL/g body weight, with a blunt-ended needle. Tail vein serial blood samples were collected at 0.125, 0.25, 0.5, 1, 2 and 4 h using heparinized capillary tubes (Sarstedt, Nümbrecht, Germany) for the 8-h experiments. For the 4- and 2-h experiments, blood samplings were performed from the tail vein with the same schedule, but terminated at 2 and 1 h, respectively. Eight, four, or two hours after oral administration, mice were deeply anesthetized with 2–3% isoflurane, followed by cardiac puncture to collect blood in Eppendorf tubes containing heparin as an anticoagulant. Brain, liver, spleen, kidney, lung, small intestine, and testis were rapidly collected after sacrificing the mice by cervical dislocation. The small intestinal contents (SIC) were separated from small intestinal tissue (SI), which was flushed and rinsed with cold saline to remove any residual feces. Brain, liver, spleen, kidney, lung, SI, SIC, and testis were homogenized with 1, 3, 1, 2, 1, 3, 2, and 1 mL of 2% BSA (w/v), respectively. Plasma fraction was isolated from blood by centrifugation at 9000× g for 6 min at 4 °C. All samples were stored at −30 °C until analysis.
# [2] = 8-h pilot oral plasma pharmacokinetics and tissue distribution, female wild-type, Abcb1a/1b;Abcg2−/− and Oatp1a/1b−/− mice; assay type: in vivo; settings: 10 mg/kg oral; for Fold change (SIC (% of dose)-to-plasma ratio) / Fold change SIC (% of dose) / Fold increase Cbrain / Fold increase Cliver / Fold increase ratio (liver-to-plasma) / Fold change AUC0-8h / Fold increase ratio (brain-to-plasma): vs wild-type; for Kp at 8 h / concentration at 8 h: female, po
# Description: as §1
# Repotrectinib was dissolved in dimethyl sulfoxide (DMSO) at a concentration of 50 mg/mL. This stock solution was first diluted 3-fold with ethanol/polysorbate 80 (1/1; v/v), followed by further dilution with a 10 mM hydrochloric acid solution, yielding a dosing solution of 1 mg/mL, freshly prepared on the day of experiment. Final concentrations of the solvents in the administration solution were: 2%, 2%, 2%, and 94% (all v/v) for DMSO, ethanol, polysorbate 80, and 10 mM hydrochloric acid solution, respectively.
# as §2
# A sensitive and specific liquid chromatography-tandem mass spectrometry method using protein precipitation pre-treatment was adopted to quantify the concentration of repotrectinib in DMEM medium, plasma samples and tissue homogenates.
# A non-compartmental model using the PKSolver add-in program for Microsoft Excel was adopted to calculate the pharmacokinetic parameters of repotrectinib. Oral availability was assessed by the plasma area under the curve (AUC), calculated using repotrectinib plasma concentration-time curves with the linear trapezoidal rule without extrapolating the infinity. Statistical testing was performed in Graphpad Prism7 (Graphpad Software, La Jolla, CA, USA). All data are presented as geometric means ± SD. Heteroscedastic data were log-transformed before applying statistical analysis. When differences between two groups were compared, the two-sided unpaired Student’s t test was used. One-way analysis of variance (ANOVA) was applied when multiple groups were compared, and the Bonferroni post hoc correction was used to accommodate multiple testing. Differences were considered statistically significant when P < 0.05.
# [3] = Table S1, female Abcb1a/1b;Abcg2−/− mice, 8 h
# [4] = Table S1, female Abcb1a/1b;Abcg2−/− mice, 8 h, 10 mg/kg
# [5] = Table S1, female Oatp1a/1b−/− mice, 8 h
# [6] = Table S1, female wild-type mice, 8 h
structure (smiles),measurement,setting,value
C[C@H]1CNC(=O)c2cnn3ccc(nc23)N[C@H](C)c2cc(F)ccc2O1 [repotrectinib],toxicity signs,[1]; Cyp3a−/− and Oatp1a/1b−/− mice,no noticeable signs of toxicity
same,time at which signs of toxicity disappeared,[1]; female Abcb1a/1b;Abcg2−/− mice,around 4 h
same,time of toxicity signs after oral administration,[1]; female Abcb1a/1b;Abcg2−/− mice,1 to 2 h
same,toxicity signs,"[1]; female Abcb1a/1b;Abcg2−/− mice, hypoactivity and continuously closed eyes",mild toxicity signs
same,toxicity signs,[1]; female wild-type mice,no noticeable toxicity symptoms
same,Tmax,"[2]; >99% FVB background, mouse, plasma, female wild-type and Abcb1a/1b;Abcg2−/− mice, 8-h pilot, read-out: time of peak plasma concentrations after dosing (converted)",30 min
same,Tmax,"[2]; FVB, mouse, plasma, Table S1, median (range), female wild-type mice, 8 h, read-out: Tmax",30 min
same,SIC (% of dose),[2]; [3],0.22 ± 0.20 % of dose
same,SIC (% of dose)-to-plasma ratio,[2]; [3],0.48 ± 0.43 ·10-3
same,Fold change (SIC (% of dose)-to-plasma ratio),[2]; [3],0.054
same,Fold change SIC (% of dose),[2]; [3],0.11
same,Fold increase Cbrain,[2]; [3],19.5
same,Fold increase Cliver,[2]; [3],1.50
same,Fold increase ratio (liver-to-plasma),[2]; [3],0.79
same,Fold change AUC0-8h,[2]; [4],1.42 and 1.4
same,Fold increase ratio (brain-to-plasma),[2]; [4],9.46 and 9.5
same,SIC (% of dose),[2]; [5],5.59 ± 3.32 % of dose
same,SIC (% of dose)-to-plasma ratio,[2]; [5],14.5 ± 8.9 ·10-3
same,Fold change (SIC (% of dose)-to-plasma ratio),[2]; [5],1.63
same,Fold change SIC (% of dose),[2]; [5],2.69
same,Fold increase Cbrain,[2]; [5],3.64
same,Fold increase Cliver,[2]; [5],1.43
same,Fold increase ratio (brain-to-plasma),[2]; [5],1.85
same,Fold increase ratio (liver-to-plasma),[2]; [5],0.86
same,Fold change AUC0-8h,"[2]; Table S1, female Oatp1a/1b−/− mice, 8 h, 10 mg/kg",1.51 and 1.5
same,SIC (% of dose),[2]; [6],2.08 ± 1.35 % of dose
same,SIC (% of dose)-to-plasma ratio,[2]; [6],8.87 ± 1.83 ·10-3
same,Fold change (SIC (% of dose)-to-plasma ratio),[2]; [6],1.00
same,Fold change AUC0-8h,[2]; [6],1.00
same,Fold change SIC (% of dose),[2]; [6],1.00
same,Fold increase Cbrain,[2]; [6],1.00
same,Fold increase Cliver,[2]; [6],1.00
same,Fold increase ratio (brain-to-plasma),[2]; [6],1.00
same,Fold increase ratio (liver-to-plasma),[2]; [6],1.00
same,Tmax,"[2]; Table S1, median (range), female Abcb1a/1b;Abcg2−/− mice, 8 h",0.5 (0 .5-1) h
same,Tmax,"[2]; Table S1, median (range), female Oatp1a/1b−/− mice, 8 h",0.5 (0.25-1) h
same,Kp at 8 h,"[2]; FVB, mouse, brain, 10 mg/kg, Table S1, female Abcb1a/1b;Abcg2−/− mice, 8 h, read-out: Brain-to-plasma ratio",2.46 ± 0.31
same,concentration at 8 h,"[2]; FVB, mouse, brain, 10 mg/kg, Table S1, female Abcb1a/1b;Abcg2−/− mice, 8 h, read-out: Cbrain",1000 ± 320 ng/g
same,Kp at 8 h,"[2]; FVB, mouse, brain, 10 mg/kg, Table S1, female Oatp1a/1b−/− mice, 8 h, read-out: Brain-to-plasma ratio",0.48 ± 0.12
same,concentration at 8 h,"[2]; FVB, mouse, brain, 10 mg/kg, Table S1, female Oatp1a/1b−/− mice, 8 h, read-out: Cbrain",186 ± 51.4 ng/g
same,Kp at 8 h,"[2]; FVB, mouse, brain, 10 mg/kg, Table S1, female wild-type mice, 8 h, read-out: Brain-to-plasma ratio",0.26 ± 0.12
same,concentration at 8 h,"[2]; FVB, mouse, brain, 10 mg/kg, Table S1, female wild-type mice, 8 h, read-out: Cbrain",51.2 ± 17.8 ng/g
same,concentration at 8 h,"[2]; FVB, mouse, liver, 10 mg/kg, Table S1, female Abcb1a/1b;Abcg2−/− mice, 8 h, read-out: Cliver",1780 ± 770 ng/mL
same,Kp at 8 h,"[2]; FVB, mouse, liver, 10 mg/kg, Table S1, female Abcb1a/1b;Abcg2−/− mice, 8 h, read-out: Liver-to-plasma ratio",4.21 ± 0.35
same,concentration at 8 h,"[2]; FVB, mouse, liver, 10 mg/kg, Table S1, female Oatp1a/1b−/− mice, 8 h, read-out: Cliver",1750 ± 450 ng/mL
same,Kp at 8 h,"[2]; FVB, mouse, liver, 10 mg/kg, Table S1, female Oatp1a/1b−/− mice, 8 h, read-out: Liver-to-plasma ratio",4.59 ± 1.28
same,concentration at 8 h,"[2]; FVB, mouse, liver, 10 mg/kg, Table S1, female wild-type mice, 8 h, read-out: Cliver",1220 ± 650 ng/mL
